Measured values from patent US20250011686A1, “BIODEGRADABLE CHELATING AGENTS AND METHODS FOR FABRIC CARE” (The Procter & Gamble Company, priority 2023, published 2025).

How the values were obtained:
Assay type in all cases: physicochemical
[1] = pKa of chelating agent (Table 1); conditions: successive pKa values; for catechin (A)/(B)
Description: Chelation is a type of bonding of ions and molecules to metal ions. It involves the formation or presence of two or more separate coordinate bonds between a ligand and a metal atom. Without being bound by theory, the stain removal effectiveness of a composition comprising one or more chelating agents may depend at least in part on the ability of the chelating agent(s) to bind to iron, which may be present in some stains, such as fruit or beverage stains. Several factors may impact a chelating agent's ability to bind to iron. These factors may include the pKa of the chelating agent compared to the wash pH, and the affinity of the chelating agent to bind with other metals, materials, or compositions in the wash.
Various embodiments may provide or employ a composition that comprises one or more chelating agents having a pKa that is less than the wash pH.

[2] = Calcium binding efficiency, logK(β110) (Table 1); conditions: one metal, one ligand, no protons
Description: (§1) The binding efficiencies may be expressed as a binding constant. A binding constant (also called formation constant or stability constant) is an equilibrium constant for the formation of a complex in solution. It is a measure of the strength of the interaction between the reagents that come together to form the complex. As an example, various stains may comprise catechins as shown in Formula 13. In Table 1, the reaction between metals and ligands is described in terms of log K(β110). In this context, K, is the equilibrium constant for the reaction between ligands and metals. The higher K, the more metal is bound. This is illustrated in the following example. β, represents the binding efficiency and receives some subscripts (βmlh) to indicate how many metals (m), ligands (l), and protons (h) respectively are involved.

[3] = Iron binding efficiency, logK(β110) (Table 1); conditions: one metal, one ligand, no protons
Description: as §1

Structure (SMILES)	pKa [1]	Ca^2+ logK(β110) (calcium binding efficiency) [2]	Fe (III) logK(β110) (iron binding efficiency) [3]	Ca^2+ logK(β110) (calcium binding efficiency) ([2]; listed as catechins)	Fe (III) logK(β110) (iron binding efficiency) ([3]; listed as catechins)
O=c1cccccc1O [Tropolone, 2-Hydroxycyclohepta-2,4,6-trien-1-one]	6.7	3.1	10.5		
CC(C)c1cccc(=O)c(O)c1 [Hinokitiol, 2-Hydroxy-6-(propan-2-yl)cyclohepta-2,4,6-trien-1-one]	~7	2.2	12.9		
CC(O)(P(=O)(O)O)P(=O)(O)O [HEDP, 1-Hydroxyethylidene-1,1-diphosphonic acid, reference compound]		6.8	14.1		
Oc1cc(O)c2c(c1)OC(c1ccc(O)c(O)c1)C(O)C2 (stereo not shown) [Catechin]	8.7	3.5	19.2	about 3.5	about 19.2
